Patent US5021438A, “1,3,4,5-tetrahydrobenz(c,d)indoles” (Bayer Aktiengesellschaft, priority 1988, dated 1991)
pKi: −log10 of the molar value. Structures can show the parent of a compound that is named as a salt.

What follows are compounds tested against 5-HT1 receptor (assay: Affinity for the 5-HT1 receptor (receptor binding, 3H-serotonin radioligand, calf hippocampus membranes)). Details: calf hippocampus membrane preparations; 3H-Serotonin as radioligand.
Description: Affinity for the 5-HT1 receptor
The high affinity of the compounds according to the invention for 5-hydroxytryptamine receptors of the subtype 1 is represented by way of example in Table 1. The values indicated are data which have been determined from receptor binding studies with calf hippocampus membrane preparations. 3H-Serotonin was used for this as a radioactively labelled ligand.

How did the pKi turn out when `COc1ccc2[nH]cc3c2c1CC(NCCCCN1C(=O)c2ccccc2S1(=O)=O)C3` (stereo not drawn) [Example 1, 6-Methoxy-4-[4-(N-1,2-benzisothiazol-3(2H)-one-1,1-dioxide-yl)]-butylamino-1,3,4,5-tetrahydrobenz[c,d]indole hydrochloride] was run?
Its pKi is 8.70.

How did the pKi turn out when `O=C1c2ccccc2S(=O)(=O)N1CCCCNC1Cc2cccc3[nH]cc(c23)C1` (stereo not drawn) [Example 2, 4-[4-(N-1,2-Benzisothiazol-3(2H)-one-1,1-dioxide-yl)]-butylamino-1,3,4,5-tetrahydrobenz[c,d]indole] was run?
Its pKi is 8.70.

With `CCCN(CCNC(=O)OCC)C1Cc2c[nH]c3ccc(OC)c(c23)C1` (stereo not drawn) [Example 5, 6-Methoxy-4-[N-propyl-N-(ethyloxycarbonylaminoethyl)]amino-1,3,4,5-tetrahydrobenz[c,d]indole] as the compound, how does the pKi read?
Its pKi is 9.00.

How did the pKi turn out when `CCCN(CCNS(C)(=O)=O)C1Cc2c[nH]c3ccc(OC)c(c23)C1` (stereo not drawn) [Example 6, 6-Methoxy-4-[N-propyl-N-(methylsulphonylamidoethyl)]-amino-1,3,4,5-tetrahydrobenz[c,d]indole] was run?
The pKi was 8.22.

How did the pKi turn out when `CCCN(CCNS(=O)(=O)c1ccc(C)cc1)C1Cc2c[nH]c3ccc(OC)c(c23)C1` (stereo not drawn) [Example 8, 6-Methoxy-4-[N-propyl-N-(tosylamidoethyl)]-amino-1,3,4,5-tetrahydrobenz[c,d]indole hydrochloride] was run?
The pKi was 9.00.

With `CCCN(CCNS(=O)(=O)c1ccc2ccccc2c1)C1Cc2c[nH]c3ccc(OC)c(c23)C1` (stereo not drawn) [Example 9, 6-Methoxy-4-[N-propyl-N-(naphthylsulphonylamidoethyl)]-amino-1,3,4,5-tetrahydrobenz[c,d]indole hydrochloride] as the compound, how does the pKi read?
Its pKi is 8.70.

`CCCN(CCS(=O)(=O)N(C)C)C1Cc2c[nH]c3ccc(OC)c(c23)C1` (stereo not drawn) [Example 15, 6-Methoxy-4-[N-propyl-N-(dimethylsulphamoylethyl)]-amino-1,3,4,5-tetrahydrobenz[c,d]indole] was tested. Which pKi did it give?
Its pKi is 8.10.

How did the pKi turn out when `COc1ccc2[nH]cc3c2c1CC(NCCCNS(=O)(=O)c1ccc(F)cc1)C3` (stereo not drawn) [Example 18, 6-Methoxy-4-(4-fluorophenylsulphonylamidopropyl)-amino-1,3,4,5-tetrahydrobenz[c,d]indole hydrochloride] was run?
The pKi was 9.15.

Each compound was assayed on "behavioral despair" behavior (assay: "behavioral despair" behavior according to Porsolt et al.). Details: according to Porsolt et al. 1977.
Assay type: in vivo
Description: Furthermore, the antidepressive action properties of the compounds were investigated. For this, the influence of the compounds on the so-called "behavioral despair" behavior was investigated according to Porsolt et al. Arch. Int. Pharmacodyn. Ther. 229, 327 (1977).

For `COc1ccc2[nH]cc3c2c1CC(NCCCCN1Cc2ccccc2S1(=O)=O)C3` (stereo not drawn) [Example 3, 6-Methoxy-4-[4-(N-2,3-dihydro-1,2-benzisothiazol-1,1-dioxid-yl)]-butylamino-1,3,4,5-tetrahydrobenz[c,d]indole hydrochloride], which “influence on "behavioral despair" behavior (antidepressive action)” value (“influence” below) is on record?
Its value is “positive action”.

With `COc1ccc2[nH]cc3c2c1CC(NCCCCN(C)S(=O)(=O)c1ccc(F)cc1)C3` (stereo not drawn) [Example 4, 6-Methoxy-4-[4-(N-4-fluorobenzenesulfonyl-N-methyl)amidobutyl]-amino-1,3,4,5-tetrahydrobenz[c,d]indole hydrochloride] as the compound, how does the “influence” value read?
The value was “positive action”.

For `CCCCS(=O)(=O)NCCN(CCC)C1Cc2c[nH]c3ccc(OC)c(c23)C1` (stereo not drawn) [Example 7], which “influence” value is on record?
Its value is “positive action”.

How did the “influence” value turn out when `CCCNC1Cc2c[nH]c3ccc(OC)c(c23)C1` (stereo not drawn) [Example 13, 6-Methoxy-4-propylamino-1,3,4,5-tetrahydrobenz[c,d]indole] was run?
Its value is “positive action”.
